Patent US20130244296A1, “HALOGENATION ENZYMES” (priority 2011, published 2013)
Read-outs that look alike come from different tables or passages of the source.

How the values were obtained:
[1] = test system: heat shock protein 90 (Hsp90); conditions: general statement, no test described; cited from earlier work
Rdc2 halogenase = molecular target: T1, Rdc2 halogenase (Metacordyceps chlamydosporia, UniProt B3FWT7, INS404VIQGSGSS/INS87YTDFIA/S88A); format: biochemical, P. chlamydosporia; conditions: three independent experiments
T1 construct: 2 was concentrated and exchanged into Buffer A; His6 (N); made in house; host or cells: Escherichia coli BL21-CodonPlus (DE3)-RIL
T1 sequence (B3FWT7 other isoform, or with tags, fused parts or gaps INS87YTDFIA/S88A/INS404VIQGSGSS): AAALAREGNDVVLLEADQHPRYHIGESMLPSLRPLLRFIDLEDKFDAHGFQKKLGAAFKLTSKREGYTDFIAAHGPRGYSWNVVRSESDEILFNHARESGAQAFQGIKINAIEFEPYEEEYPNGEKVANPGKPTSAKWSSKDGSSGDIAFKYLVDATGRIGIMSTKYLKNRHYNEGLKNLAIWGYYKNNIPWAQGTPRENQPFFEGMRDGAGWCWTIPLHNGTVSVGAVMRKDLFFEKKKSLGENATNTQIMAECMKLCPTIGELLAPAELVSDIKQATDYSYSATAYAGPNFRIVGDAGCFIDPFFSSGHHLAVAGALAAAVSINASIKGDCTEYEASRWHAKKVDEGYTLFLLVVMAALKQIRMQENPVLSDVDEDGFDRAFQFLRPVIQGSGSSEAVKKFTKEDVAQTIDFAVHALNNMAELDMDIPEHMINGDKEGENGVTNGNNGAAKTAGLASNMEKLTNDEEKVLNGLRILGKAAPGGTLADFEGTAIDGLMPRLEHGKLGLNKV
Procedure: Kinetic analysis of two chlorination steps of dihydroresorcylide (compound 3) by an Rdc2 halogenase of the present disclosure was carried out. Dihydroresorcylide (compound 3) was chosen as the substrate to study the kinetics of the Rdc2 halogenase. To measure the ka, and Km for the C-11 chlorination, a series of 100-μL reaction systems were set up containing 100 μM FAD, 10 mM NADH, 10 mM NaCl, 16 μM Fre, and 16 μM Rdc2 halogenase in 100 mM phosphate buffer (pH 7.0) with varying amount of compound 3 (0.17 to 1.71 mM) in each tube. All the reaction components and Fre were mixed thoroughly and maintained at 28° C. for 2 min. Rdc2 was then added to initiate the reaction. After 30 minutes, the reactions were quenched with 200 μL of MeOH, briefly vortexed, and centrifuged at 15,000 rpm for 5 minutes. Product formation was quantified on the HPLC at 315 nm based on the area of the peaks and standard curve of compound 3a. Reactions were run in triplicate and the steady-state parameters kcat and Km were determined by nonlinear fitting of Michaelis-Menten equation.
For the second halogenations step, C-13 chlorination, the same method was used to determine kcat and Km except that 11-chlorodihydroresorcylide (compound 3a) was used as the substrate (0.03-0.18 mM).

[2] = C-13 halogenation (chlorination), compound 3a as substrate

## C[C@@H]1C[C@H]2O[C@@H]2/C=C\C=C\C(=O)Cc2cc(O)cc(O)c2C(=O)O1 [Compound 1, monocillin I]
[1]
  Hsp90 inhibition: potent

## C[C@@H]1C[C@H]2O[C@@H]2/C=C\C=C\C(=O)Cc2c(Cl)c(O)cc(O)c2C(=O)O1 [Compound 1a, radicicol]
[1]
  Hsp90 inhibition: potent

## C[C@H]1CCCCCC(=O)Cc2cc(O)cc(O)c2C(=O)O1 [Compound 3, dihydroresorcylide]
Rdc2 halogenase; C-11 halogenation (chlorination), compound 3 as substrate, 16 μM Fre, 16 μM Rdc2, pH 7.0, 28° C., 30 minutes
  Km: 281 ± 20 µM
Rdc2 halogenase; C-11 halogenation (chlorination), compound 3 as substrate
  kcat: 0.0137 ± 0.000667 s⁻¹

## CC1CCCC(=O)CCCc2c(Cl)c(O)cc(O)c2C(=O)O1 (stereo not drawn) [Compound 3a, 11-chlorodihydroresorcylide]
Rdc2 halogenase; [2]
  Km: 846 ± 26 µM
  kcat: 0.0016 ± 6.7e-05 s⁻¹
